Data: ChEMBL document CHEMBL1201862, “PubChem BioAssay data set” (2004)
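Assay format: 96-well plates, 48-hour exposure. Here, GI50 denotes the concentration required for 50% inhibition of growth.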 Activity calls are given as the source filed them. Cut-off read from the data, not from the text of the source: active = GI50 up to about 1.1 µM and inactive = higher.

Legend:
Assay in all cases: growth of human tumour cells (NCI), 48 h
A498 = tested on: A498
A549 = tested on: A549
CAKI-1 = tested on: CAKI-1
COLO 205 = tested on: COLO 205
EKVX = tested on: EKVX
HCT-116 = tested on: HCT-116
HT-29 = tested on: HT-29
KM12 = tested on: KM12
M14 = tested on: M14
MDA-MB-231 = tested on: MDA-MB-231
MOLT-4 = tested on: MOLT-4
NCI/ADR-RES = tested on: NCI/ADR-RES
OVCAR-8 = tested on: OVCAR-8
SN12C = tested on: SN12C
SNB-19 = tested on: SNB-19
SR = tested on: SR
TK-10 = tested on: TK-10
UO-31 = tested on: UO-31
HOP-92 = tested on: HOP-92
SK-MEL-2 = tested on: SK-MEL-2

O=[N+]([O-])c1ccc2c(c1)C(N1CCN(CCO)CC1)Cc1ccc(F)cc1S2 (configuration not stated) was tested, and the GI50 (A498) was 11.6 µM (inactive), the GI50 (A549) was 12.1 µM (inactive) and the GI50 (CAKI-1) was 13.1 µM (inactive). The GI50 (COLO 205) was 5.48 µM (inactive), the GI50 (EKVX) was 11.2 µM (inactive) and the GI50 (HCT-116) was 5 µM (inactive). For the same molecule, the GI50 (HT-29) was 2.49 µM (inactive), the GI50 (KM12) was 6.64 µM (inactive) and the GI50 (M14) was 3.15 µM (inactive). The GI50 (MDA-MB-231) was 12.9 µM (inactive), the GI50 (MOLT-4) was 1.04 µM (active) and the GI50 (NCI/ADR-RES) was 10.3 µM (inactive). The GI50 (OVCAR-8) was 11.3 µM (inactive), the GI50 (SN12C) was 11.5 µM (inactive) and the GI50 (SNB-19) was 10.7 µM (inactive). For the same molecule, the GI50 (SR) was 4.04 µM (inactive), the GI50 (TK-10) was 13.7 µM (inactive) and the GI50 (UO-31) was 4.39 µM (inactive).
For CC1OC(NCCNCCNC2OC(C)C(O)C(O)C2O)C(O)C(O)C1O (configuration not stated), the GI50 (A498) was > 100 µM (inactive), the GI50 (A549) was > 100 µM (inactive) and the GI50 (COLO 205) was > 100 µM (inactive). For the same molecule, the GI50 (EKVX) was > 100 µM (inactive), the GI50 (HCT-116) was > 100 µM (inactive) and the GI50 (HOP-92) was > 100 µM (inactive). For the same molecule, the GI50 (HT-29) was > 100 µM (inactive), the GI50 (KM12) was > 100 µM (inactive) and the GI50 (M14) was > 100 µM (inactive). The GI50 (MDA-MB-231) was > 100 µM (inactive), the GI50 (MOLT-4) was > 100 µM (inactive) and the GI50 (NCI/ADR-RES) was > 100 µM (inactive). The GI50 (OVCAR-8) was > 100 µM (inactive), the GI50 (SK-MEL-2) was > 100 µM (inactive) and the GI50 (SN12C) was > 100 µM (inactive). The GI50 (SNB-19) was > 100 µM (inactive), the GI50 (SR) was > 100 µM (inactive) and the GI50 (TK-10) was > 100 µM (inactive). For the same molecule, the GI50 (UO-31) was > 100 µM (inactive).
With CC(C)Oc1cc2c(cc1O)CC[C@@H]1[C@@H]2CC[C@]2(C)[C@@H](O)CC[C@@H]12 the GI50 (A498) was 6.65 µM (inactive), the GI50 (A549) was 5.52 µM (inactive) and the GI50 (CAKI-1) was 1.52 µM (inactive). For the same molecule, the GI50 (COLO 205) was 20 µM (inactive), the GI50 (EKVX) was 12.7 µM (inactive) and the GI50 (HCT-116) was 3.33 µM (inactive). The GI50 (HOP-92) was 11.2 µM (inactive), the GI50 (HT-29) was 9.84 µM (inactive) and the GI50 (KM12) was 4.2 µM (inactive). For the same molecule, the GI50 (M14) was 3.79 µM (inactive), the GI50 (MDA-MB-231) was 8.36 µM (inactive) and the GI50 (MOLT-4) was 4.74 µM (inactive). The GI50 (NCI/ADR-RES) was 2.07 µM (inactive), the GI50 (OVCAR-8) was 8.75 µM (inactive) and the GI50 (SN12C) was 5.66 µM (inactive). For the same molecule, the GI50 (SNB-19) was 5.31 µM (inactive), the GI50 (SR) was 0.575 µM (active) and the GI50 (TK-10) was 11 µM (inactive). The GI50 (UO-31) was 6.46 µM (inactive).
CC1(C)Cc2c(cnn2-c2ccc(C(F)(F)F)cc2)-c2[nH]c(-c3ccc(O)cc3)nc21 was tested, and the GI50 (A498) was 20.4 µM (inactive), the GI50 (A549) was 12.7 µM (inactive) and the GI50 (CAKI-1) was 17.4 µM (inactive). For the same molecule, the GI50 (COLO 205) was 13.7 µM (inactive), the GI50 (EKVX) was 20.4 µM (inactive) and the GI50 (HCT-116) was 13.1 µM (inactive). For the same molecule, the GI50 (HOP-92) was 17.9 µM (inactive), the GI50 (HT-29) was 3.99 µM (inactive) and the GI50 (KM12) was 13 µM (inactive). The GI50 (M14) was 14.9 µM (inactive), the GI50 (MDA-MB-231) was 22.3 µM (inactive) and the GI50 (MOLT-4) was 2.05 µM (inactive). The GI50 (NCI/ADR-RES) was 19.5 µM (inactive), the GI50 (OVCAR-8) was 20.8 µM (inactive) and the GI50 (SN12C) was 16.7 µM (inactive). The GI50 (SNB-19) was 16.6 µM (inactive), the GI50 (SR) was 4.71 µM (inactive) and the GI50 (TK-10) was 16.5 µM (inactive). For the same molecule, the GI50 (UO-31) was 15.3 µM (inactive).
With Nc1nc(Cl)cc(NCC2(CO)CC(CCc3ccccc3)C2)n1 (configuration not stated) the GI50 (A498) was > 100 µM (inactive), the GI50 (A549) was 9.16 µM (inactive) and the GI50 (CAKI-1) was > 100 µM (inactive). For the same molecule, the GI50 (COLO 205) was > 71.9 µM (inactive), the GI50 (EKVX) was 2.83 µM (inactive) and the GI50 (HOP-92) was > 28.8 µM (inactive). The GI50 (HT-29) was > 46 µM (inactive), the GI50 (KM12) was 83.9 µM (inactive) and the GI50 (M14) was > 100 µM (inactive). The GI50 (MDA-MB-231) was > 81.1 µM (inactive), the GI50 (MOLT-4) was 8.38 µM (inactive) and the GI50 (NCI/ADR-RES) was 4.14 µM (inactive). For the same molecule, the GI50 (OVCAR-8) was 21.8 µM (inactive), the GI50 (SK-MEL-2) was 97.9 µM (inactive) and the GI50 (SN12C) was > 100 µM (inactive). For the same molecule, the GI50 (SNB-19) was > 100 µM (inactive), the GI50 (SR) was 1.31 µM (inactive) and the GI50 (TK-10) was > 70.5 µM (inactive). For the same molecule, the GI50 (UO-31) was > 75.2 µM (inactive).
For O=C(O)C1C2C=CC(O2)C1C(=O)Nc1ccccc1 (configuration not stated), the GI50 (A498) was > 100 µM (inactive), the GI50 (A549) was > 100 µM (inactive) and the GI50 (CAKI-1) was > 100 µM (inactive). For the same molecule, the GI50 (COLO 205) was > 100 µM (inactive), the GI50 (EKVX) was > 100 µM (inactive) and the GI50 (HCT-116) was > 100 µM (inactive). The GI50 (HT-29) was > 100 µM (inactive), the GI50 (KM12) was > 100 µM (inactive) and the GI50 (M14) was > 100 µM (inactive). For the same molecule, the GI50 (MDA-MB-231) was > 100 µM (inactive), the GI50 (MOLT-4) was > 100 µM (inactive) and the GI50 (NCI/ADR-RES) was > 100 µM (inactive). The GI50 (OVCAR-8) was > 100 µM (inactive), the GI50 (SK-MEL-2) was > 100 µM (inactive) and the GI50 (SN12C) was > 100 µM (inactive). The GI50 (SNB-19) was > 100 µM (inactive), the GI50 (SR) was > 100 µM (inactive) and the GI50 (TK-10) was > 100 µM (inactive). For the same molecule, the GI50 (UO-31) was > 100 µM (inactive).
In the case of O=C(Nc1nc2ccc([N+](=O)[O-])cc2[n+]([O-])n1)C(F)(F)F, the GI50 (A498) is reported as 29.6 µM (inactive), the GI50 (A549) is reported as 24.6 µM (inactive) and the GI50 (CAKI-1) is reported as 57.3 µM (inactive). The GI50 (COLO 205) was 4.65 µM (inactive), the GI50 (HCT-116) was 19.8 µM (inactive) and the GI50 (HOP-92) was 56.1 µM (inactive). For the same molecule, the GI50 (HT-29) was 23.3 µM (inactive), the GI50 (KM12) was 29.1 µM (inactive) and the GI50 (M14) was 37.3 µM (inactive). For the same molecule, the GI50 (MDA-MB-231) was 26.9 µM (inactive), the GI50 (MOLT-4) was 24.4 µM (inactive) and the GI50 (NCI/ADR-RES) was 32.4 µM (inactive). For the same molecule, the GI50 (OVCAR-8) was 21 µM (inactive), the GI50 (SK-MEL-2) was 20.7 µM (inactive) and the GI50 (SN12C) was 29.4 µM (inactive). The GI50 (SNB-19) was 49.8 µM (inactive), the GI50 (SR) was 29.5 µM (inactive) and the GI50 (TK-10) was 44.2 µM (inactive). For the same molecule, the GI50 (UO-31) was 40.8 µM (inactive).
